# Patent publication US12195427B2, “MASP-2 inhibitors and methods of use” (priority 2018, dated 2025)
# Counter-ions that a name gives are not always drawn.
# Biological target: MASP-2 CCP2-SP (Homo sapiens (Human), UniProt O00187)
# Test: MASP-2 co-crystallization, X-ray crystallography and structure analysis (H-bonds, van der Waals contacts);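 on Ligand-pharmacophore element distance, pharmacophore element C2: distance from averaged pharmacophore element to bound ligand; missing value means element absent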;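 on Ligand-pharmacophore element distance, pharmacophore element C3: distance from averaged pharmacophore element to bound ligand; missing value means element absent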;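 on Ligand-pharmacophore element distance, pharmacophore element C4: distance from averaged pharmacophore element to bound ligand; missing value means element absent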;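 on Ligand-pharmacophore element distance, pharmacophore element C5: distance from averaged pharmacophore element to bound ligand; missing value means element absent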
# Design: van der Waals contact distance, MASP-2 HIS 483 atom CD2 / van der Waals contact distance, MASP-2 HIS 483 atom NE2 / van der Waals contact distance, SER 654 C to compound atom / van der Waals contact distance, SER 654 O to compound atom / van der Waals contact distance, TRP 655 C to compound atom / van der Waals contact distance, MASP-2 GLY 528 atom CA / van der Waals contact distance TRP 655 atom CZ3 / van der Waals contact distance TRP 655 atom N / van der Waals contact distance TRP 655 atom CE3 / van der Waals contact distance GLY 656 atom C / van der Waals contact distance GLY 656 atom CA / van der Waals contact distance GLY 656 atom O / van der Waals contact distance, MASP-2 TYR 607 atom CD1 / van der Waals contact distance, MASP-2 PRO 606 atom O / d(C3,CA1) / d(CA1,N1)2 / d(H4,O1) / d(H4,O2) / d(O1,O2) / d(CA1,O2) / d(CA6,O1) / d(CA6,O2) / d(CA1,C5) / d(O2,H3) / d(N2,C2) / d(CA5,N2) / d(N2,C4) / d(N2,C6) / d(N2,CA3) / d(N2,O3) / d(O4,H2): unit not given beside the values
# In short: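 Soaked crystals of recombinant CCP2-SP (E. coli) yield the structures, phased by molecular replacement on 1Q3X pieces. Hydrophobic or nonbonded contacts can also cover atom pairs that are potential hydrogen bonds.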
# [1] = Table A5-1 pharmacophore: distance between elements, S2/S1 region
# [2] = Table A5-2 pharmacophore distance, S3/S4 region
# [3] = Table A7-1, between pharmacophore elements of the bound compound
# Chain of MASP-2 CCP2-SP (O00187 445-686): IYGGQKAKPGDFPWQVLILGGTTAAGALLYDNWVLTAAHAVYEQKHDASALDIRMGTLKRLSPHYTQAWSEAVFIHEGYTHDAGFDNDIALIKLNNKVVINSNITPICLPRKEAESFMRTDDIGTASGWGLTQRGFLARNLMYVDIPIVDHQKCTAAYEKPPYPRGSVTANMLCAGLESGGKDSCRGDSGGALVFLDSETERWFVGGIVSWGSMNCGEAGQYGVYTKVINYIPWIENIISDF
# Chain of MASP-2 CCP2-SP (O00187 364-432 partner): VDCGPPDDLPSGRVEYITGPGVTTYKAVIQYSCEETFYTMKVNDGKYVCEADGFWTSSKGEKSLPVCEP
structure (smiles),measurement,setting,value
"Cc1nc(N)ccc1CNC(=O)[C@H](C)NC(=O)[C@H]1C[C@@H](c2ccccc2)CCN1 [compound 1253, (2R,4S)—N—((S)-1-(((6-Amino-2-methylpyridin-3-yl)methyl)amino)-1-oxopropan-2-yl)-4-phenylpiperidine-2-carboxamide Dihydrochloride]",H-bond distance to MASP-2 ASP 627 atom OD2,"Table A1 (H-Bonds), ASP 627 OD2",3.33
same,H-bond distance to MASP-2 GLY 656 atom N,"Table A1 (H-Bonds), GLY 656 N",3.23
same,H-bond distance to MASP-2 GLY 656 atom O,"Table A1 (H-Bonds), GLY 656 O",2.83
same,H-bond distance to MASP-2 SER 628 atom O,"Table A1 (H-Bonds), SER 628 O",3.12
same,H-bond distance to MASP-2 SER 654 atom O,"Table A1 (H-Bonds), SER 654 O",2.99
same,H-bond distance to MASP-2 SER 657 atom O,"Table A1 (H-Bonds), SER 657 O",2.85
same,"van der Waals contact distance, MASP-2 HIS 483 atom CD2",Table A2-1,3.74
same,"van der Waals contact distance, MASP-2 HIS 483 atom NE2",Table A2-1,3.66
same,"van der Waals contact distance, MASP-2 PHE 529 atom CE2",Table A2-3,3.77
same,"van der Waals contact distance, MASP-2 amino acid atom to compound atom","Table A2-5: TYR 607 (CE1, CE2, OH), PRO 608 (CD, CG), SER 611 (CA)",3.73
same,"van der Waals contact distance, MASP-2 amino acid atom to compound atom","Table A2-7: SER 628 (CB, O, OG)",3.58
same,"van der Waals contact distance, VAL 653 CG1 to compound atom",Table A2-11,3.31
same,"van der Waals contact distance, TRP 655 CA to compound atom",Table A2-12,3.41
same,van der Waals contact distance TRP 655 atom CE3,"Table A2-13, MASP-2 TRP 655 CE3, compound atom in line below",3.61
same,van der Waals contact distance TRP 655 atom CZ3,"Table A2-13, MASP-2 TRP 655 CZ3",3.71
same,"Ligand-pharmacophore element distance, pharmacophore element C2","Table A4-1, element C2",0.28
same,"Ligand-pharmacophore element distance, pharmacophore element C3","Table A4-1, element C3",0.07
same,"Ligand-pharmacophore element distance, pharmacophore element C4","Table A4-1, element C4",0
same,"Ligand-pharmacophore element distance, pharmacophore element C5","Table A4-1, element C5",0
same,"Ligand-pharmacophore element distance, pharmacophore element C6","Table A4-1, element C6",0
same,"Ligand-pharmacophore element distance, pharmacophore element C7","Table A4-1, element C7",0
same,"Ligand-pharmacophore element distance, pharmacophore element CA1","Table A4-1, element CA1",0.59
same,"Ligand-pharmacophore element distance, pharmacophore element CA2","Table A4-1, element CA2",0.23
same,"Ligand-pharmacophore element distance, pharmacophore element CA3","Table A4-1, element CA3",0
same,"Ligand-pharmacophore element distance, pharmacophore element CA4","Table A4-1, element CA4",0
same,"Ligand-pharmacophore element distance, pharmacophore element CA5","Table A4-1, element CA5",0
same,"Ligand-pharmacophore element distance, pharmacophore element CA6","Table A4-1, element CA6",0
same,"d(C3,CA1)",[1],2.87
same,"d(CA1,N1)2",[1],1.37
same,"d(CA1,O1)",[1],4.36
same,"d(CA1,O2)",[1],3.83
same,"d(H4,O1)",[1],4.38
same,"d(H4,O2)",[1],3.69
same,"d(O1,O2)",[1],3.39
same,"d(N2,C2)",[2],1.46
same,"d(N2,CA2)",[2],5.74
same,"d(O2,H3)",[2],2.04
same,"d(O2,N2)",[2],2.70
same,"a(C3, CA1, O1)",Table A6-1 pharmacophore angle,149.95
same,"a(CA1, O1, O2)",Table A6-1 pharmacophore angle,105.84
same,"a(O1, O2, H4)",Table A6-1 pharmacophore angle,131.28
same,"a(N1, CA1, O1) b)","Table A6-1 pharmacophore angle, Methyl-amino-pyridine compounds",174.19
same,"a(O1, O2, H3)",Table A6-2 pharmacophore angle,134.57
same,"a(O1, O2, N2)",Table A6-2 pharmacophore angle,140.99
same,"a(O2, N2, C2)",Table A6-2 pharmacophore angle,130.77
same,"a(O2, N2, CA2)",Table A6-2 pharmacophore angle,155.92
same,"Pharmacophore torsion angle a(C3, CA1, O1, H4)",[3],26.20
same,"Pharmacophore torsion angle a(H4, O1, O2, H3)",[3],115.64
same,"Pharmacophore torsion angle a(H4, O1, O2, N2)",[3],140.24
same,"Pharmacophore torsion angle a(N1, CA1, O1, H4)",[3],3.75
same,"Pharmacophore torsion angle a(O1, H4, O2, CA1)",[3],−82.09
same,"Pharmacophore torsion angle a(O1, O2, N2, C2)",[3],120.69
same,"Pharmacophore torsion angle a(O1, O2, N2, CA2)","Table A7-2, between pharmacophore elements of the bound compound",126.24
